According to patent US8536204B2, “Amides and thioamides as pesticides” (Bayer CropScience AG, priority 2009, dated 2013):

System: not listed separately
Assay: Determination of the logP values (formic acid method) by HPLC
Type: physicochemical
Conditions: reversed-phase HPLC column (C 18), pH 3.4, HPLC on reversed-phase column (C 18), acidic range (pH 3.4), 55° C.; Table 1; read-out: logP (HCOOH)
Experimental: 1) Description of Method for Determining the LogP Values (Formic Acid Method)
The logP values reported in the table were determined according to EEC-Directive 79/831 Annex V.A8 by HPLC (High Performance Liquid Chromatography) on a reversed-phase column (C 18). Temperature: 55° C.
Eluents for the determination in the acidic range (pH 3.4):
Eluent A: acetonitrile+1 ml of formic acid/litre. Eluent B: water+0.9 ml of formic acid/litre.
Gradient: from 10% eluent A/90% eluent B to 95% eluent A/5% eluent B in 4.25 min.
The calibration was effected with unbranched alkan-2-ones (with 3 to 16 carbon atoms), whose logP values are known (determination of the logP values on the basis of the retention times by linear interpolation between two successive alkanones). The lambda-max values were determined with reference to the UV spectra from 200 nm to 400 nm in the maxima of the chromatographic signals.

Row | SMILES | chromatographic logP
1 | Cc1nn(-c2cccnc2)cc1C(=O)NCC(F)(F)C(F)(F)F [Example 31] | 1.95
2 | Cc1nn(-c2cccnc2)cc1C(=O)NCCC(F)(F)F [Example 32] | 1.52
3 | Cc1nn(-c2cccnc2)cc1C(=O)NCC1OCCO1 [Example 33] | 0.88
4 | Cc1nn(-c2cccnc2)cc1C(=O)NCC1COCCO1 (centres unmarked) [Example 34] | 0.91
5 | COC(CNC(=O)c1cn(-c2cccnc2)nc1C)OC [Example 35] | 1.04
6 | Cc1nn(-c2cccnc2)cc1C(=O)NCC1CC1 [Example 36] | 1.32
7 | Cc1nn(-c2cccnc2)cc1C(=O)N(C)CC(F)(F)F [Example 37] | 1.57
8 | Cc1nn(-c2cccnc2)cc1C(=O)NCCF [Example 38] | 0.87
9 | CCNC(=O)c1cn(-c2cccnc2)nc1C [Example 39] | 0.91
10 | N#CCNC(=O)c1cnn(-c2cccnc2)c1 [Example 40] | 0.52
11 | CC(C)C(C#N)NC(=O)c1cnn(-c2cccnc2)c1 (centres unmarked) [Example 41] | 1.4
12 | CN(C(=O)c1cnn(-c2cccnc2)c1)C(C)(C)C#N [Example 42] | 1.09
13 | COC(=O)C(C)NC(=O)c1cn(-c2cccnc2)nc1C (centres unmarked) [Example 43] | 1.14
14 | Cc1nn(-c2cccnc2)cc1C(=O)NCC#N [Example 44] | 0.79
15 | COC(=O)C1(NC(=O)c2cnn(-c3cccnc3)c2)CC1 [Example 45] | 0.84
16 | Cc1nn(-c2cccnc2)cc1C(=O)NCC(F)F [Example 46] | 1.12
17 | Cc1nn(-c2cccnc2)cc1C(=O)NC1(C(F)(F)F)CC1 [Example 47] | 1.63
18 | Cc1nn(-c2cccnc2)cc1C(=O)NCc1nc(C2CC2)no1 [Example 48] | 1.43
19 | Cc1cc(C)nc(CNC(=O)c2cn(-c3cccnc3)nc2C)n1 [Example 49] | 1.2
20 | COc1cc(OC)nc(CNC(=O)c2cnn(-c3cccnc3)c2)n1 [Example 51] | 1.37
21 | O=C(NCC(F)(F)C(F)(F)F)c1cnn(-c2cccnc2)c1 [Example 52] | 1.69
22 | N#CC1(NC(=O)c2cnn(-c3cccnc3)c2)CC1 [Example 53] | 0.76
23 | COC(=O)C(C)NC(=O)c1cnn(-c2cccnc2)c1 (centres unmarked) [Example 55] | 0.91
24 | Cc1nn(-c2cccnc2)cc1C(=O)NCC1Cc2ccccc2O1 (centres unmarked) [Example 56] | 1.9
25 | Cc1nn(-c2cccnc2)cc1C(=O)NCCOc1cc(Cl)ccc1Cl [Example 57] | 2.56

Same assay, conditions: reversed-phase HPLC column (C 18), pH 3.4, formic acid method, pH 3.4; given in the preparation examples; read-out: log P (HCOOH)

Row | SMILES | chromatographic logP
26 | N#Cc1cnn(-c2cccnc2)c1 [1-(Pyridin-3-yl)-1H-pyrazole-4-carbonitrile] | 0.98
27 | O=C(O)c1cnn(-c2cccnc2)c1 [1-(Pyridin-3-yl)-1H-pyrazole-4-carboxylic acid] | 0.5
28 | Cc1nn(-c2cccnc2)cc1C(=O)O [3-Methyl-1-(pyridin-3-yl)-1H-pyrazole-4-carboxylic acid] | 0.77
29 | CCOC(=O)c1cn(-c2cccnc2)nc1C [Ethyl 3-methyl-1-(pyridin-3-yl)-1H-pyrazole-4-carboxylate] | 1.83

System: green peach aphid (Myzus persicae)
Assay: Myzus test (spray treatment)
Type: in vivo
Conditions: 144 h, application rate 50 g/ha, spray on Chinese cabbage leaf slices, after 6 days, read-out: efficacy in % (100% means that all aphids have been killed)
Experimental: Myzus Test (Spray Treatment)
Solvent: • 78 parts by weight of acetone • 1.5 parts by weight of dimethylformamide
Emulsifier: 0.5 part by weight of alkylaryl polyglycol ether
To produce an appropriate active ingredient formulation, 1 part by weight of active ingredient is mixed with the amounts of solvent and emulsifier specified and the concentrate is diluted to the desired concentration with emulsifier-containing water.
Chinese cabbage leaf slices (Brassica pekinensis) infested by all stages of the green peach aphid (Myzus persicae) are sprayed with an active ingredient formulation of the desired concentration.
After 6 days, the efficacy in % is determined. 100% means that all aphids have been killed; 0% means that no aphids have been killed.

Row | SMILES | pest or weed control at 50 g/ha [%]
30 | O=C(NCC(F)(F)C(F)(F)F)c1cnn(-c2cccnc2)c1 [Example 52] | 90
31 | N#CC1(NC(=O)c2cnn(-c3cccnc3)c2)CC1 [Example 53] | 90
32 | COC(=O)C(C)NC(=O)c1cnn(-c2cccnc2)c1 (centres unmarked) [Example 55] | 90

Same assay, conditions: 144 h, application rate 500 g/ha, spray on Chinese cabbage leaf slices, after 6 days, read-out: efficacy in % (100% means that all aphids have been killed)

Row | SMILES | pest or weed control at 500 g/ha [%]
33 | Cc1nn(-c2cccnc2)cc1C(=O)NCC(F)(F)C(F)(F)F [Example 31] | 100
34 | Cc1nn(-c2cccnc2)cc1C(=O)NCCC(F)(F)F [Example 32] | 100
35 | Cc1nn(-c2cccnc2)cc1C(=O)NCC1OCCO1 [Example 33] | 100
36 | Cc1nn(-c2cccnc2)cc1C(=O)NCC1COCCO1 (centres unmarked) [Example 34] | 100
37 | COC(CNC(=O)c1cn(-c2cccnc2)nc1C)OC [Example 35] | 100
38 | Cc1nn(-c2cccnc2)cc1C(=O)NCC1CC1 [Example 36] | 100
39 | Cc1nn(-c2cccnc2)cc1C(=O)N(C)CC(F)(F)F [Example 37] | 100
40 | Cc1nn(-c2cccnc2)cc1C(=O)NCCF [Example 38] | 100
41 | CCNC(=O)c1cn(-c2cccnc2)nc1C [Example 39] | 100
42 | N#CCNC(=O)c1cnn(-c2cccnc2)c1 [Example 40] | 100
43 | CC(C)C(C#N)NC(=O)c1cnn(-c2cccnc2)c1 (centres unmarked) [Example 41] | 100
44 | CN(C(=O)c1cnn(-c2cccnc2)c1)C(C)(C)C#N [Example 42] | 100
45 | COC(=O)C(C)NC(=O)c1cn(-c2cccnc2)nc1C (centres unmarked) [Example 43] | 100
46 | COC(=O)C1(NC(=O)c2cnn(-c3cccnc3)c2)CC1 [Example 45] | 100
47 | Cc1nn(-c2cccnc2)cc1C(=O)NCC(F)F [Example 46] | 100
48 | Cc1nn(-c2cccnc2)cc1C(=O)NC1(C(F)(F)F)CC1 [Example 47] | 100
49 | Cc1nn(-c2cccnc2)cc1C(=O)NCc1nc(C2CC2)no1 [Example 48] | 100
50 | Cc1cc(C)nc(CNC(=O)c2cn(-c3cccnc3)nc2C)n1 [Example 49] | 100
